How the values were obtained:
[1] = system: Sirt2; settings: cited from earlier work
[2] = system: Sirt1; settings: cited from earlier work
[3] = system: yeast Sir2; set-up: method as in PMID 14534292; settings: cited from earlier work
[4] = system: Sirt5; settings: cited from earlier work
[5] = target: T1, Sirt6 (Homo sapiens, UniProt Q8N6T7); experiment: Fluor-de-Lys peptide deacetylation assay, Sirt6; format: biochemical; settings: 100 μM compound; 0.1 mM FdL-1 peptide, 0.5 mM NAD+
T1 construct: Sirt6 residues 13-308; His-tag with linker comprising a TEV protease cleavage site (N, cleaved yes); made in house; host or cells: E. coli Rosetta2
T1 sequence (Q8N6T7 13-308): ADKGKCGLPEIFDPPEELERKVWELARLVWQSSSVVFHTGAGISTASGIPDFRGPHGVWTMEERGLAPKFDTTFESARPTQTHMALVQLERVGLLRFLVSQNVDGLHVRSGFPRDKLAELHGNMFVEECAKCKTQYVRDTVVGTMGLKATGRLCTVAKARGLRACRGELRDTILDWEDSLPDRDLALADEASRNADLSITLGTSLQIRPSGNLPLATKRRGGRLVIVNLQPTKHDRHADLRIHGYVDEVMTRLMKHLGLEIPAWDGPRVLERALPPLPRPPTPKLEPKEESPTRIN
In short: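 Fluor-de-Lys kit run with FdL-1 peptide RHK(acetyl-K), 0.1 mM, plus 0.5 mM NAD+. Compounds at 100 μM final, 30 min at 37 °C, then trypsin developer for 45 min at room temperature.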

[6] = target: T2, Sirt2 (Homo sapiens, UniProt Q8IXJ6); experiment: Fluor-de-Lys peptide deacetylation assay, Sirt2; format: biochemical
T2 sequence (Q8IXJ6 34-356): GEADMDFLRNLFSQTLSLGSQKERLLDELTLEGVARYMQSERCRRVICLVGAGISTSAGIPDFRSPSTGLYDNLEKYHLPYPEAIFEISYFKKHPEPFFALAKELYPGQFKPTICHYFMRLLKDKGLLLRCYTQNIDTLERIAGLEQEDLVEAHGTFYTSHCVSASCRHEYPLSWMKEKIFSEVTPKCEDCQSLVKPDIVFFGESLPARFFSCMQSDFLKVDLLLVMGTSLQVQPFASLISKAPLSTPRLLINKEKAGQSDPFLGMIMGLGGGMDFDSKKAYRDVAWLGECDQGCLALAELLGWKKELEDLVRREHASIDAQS
In short: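 Full-length human Sirt2 (E. coli-expressed, purified, His-tag removed) incubated 30 min at 37 °C with 0.1 mM FdL-2 peptide (QPK(acetyl-K)), 0.5 mM NAD+ and compound at 100 μM final in kit buffer. Values corrected with compound-only (no Sirtuin) controls; screen in duplicate, dose-response in triplicate.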

[7] = system: HEK cells; experiment: Cytotoxicity testing on HEK cells
[8] = target: T3, Sirt5 (Homo sapiens, UniProt Q9NXA8); experiment: Fluor-de-Lys peptide deacetylation assay, Sirt5; format: biochemical; settings: 100 μM compound; 0.1 mM FdL-1 peptide, 0.5 mM NAD+
T3 construct: Sirt5 residues 34-302; His-tag with linker comprising a TEV protease cleavage site (N); made in house
T3 sequence (Q9NXA8 34-302): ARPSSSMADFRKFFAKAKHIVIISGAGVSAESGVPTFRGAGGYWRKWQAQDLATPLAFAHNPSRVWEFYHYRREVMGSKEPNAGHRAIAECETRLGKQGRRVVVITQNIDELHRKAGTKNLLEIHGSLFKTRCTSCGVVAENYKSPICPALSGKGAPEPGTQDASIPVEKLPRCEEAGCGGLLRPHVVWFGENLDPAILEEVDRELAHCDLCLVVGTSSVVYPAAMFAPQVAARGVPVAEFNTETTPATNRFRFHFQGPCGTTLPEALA
In short: (§1)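 E. coli-expressed human Sirtuins with 0.5 mM NAD+ and 0.1 mM Fluor-de-Lys peptide: FdL-2 (QPK(acetyl-K)) for Sirt3, FdL-1 (RHK(acetyl-K)) for Sirt5. Compounds at 100 μM final; 30 min at 37 °C, then trypsin developer for 45 min at room temperature.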

[9] = target: T4, Sirt3 (Homo sapiens, UniProt Q9NTG7); experiment: Fluor-de-Lys peptide deacetylation assay, Sirt3; format: biochemical; settings: 100 μM compound; 0.1 mM FdL-2 peptide, 0.5 mM NAD+
T4 construct: Sirt3 residues 114-399; His-tag with linker comprising a TEV protease cleavage site (N); made in house; host or cells: E. coli
T4 sequence (Q9NTG7 114-399): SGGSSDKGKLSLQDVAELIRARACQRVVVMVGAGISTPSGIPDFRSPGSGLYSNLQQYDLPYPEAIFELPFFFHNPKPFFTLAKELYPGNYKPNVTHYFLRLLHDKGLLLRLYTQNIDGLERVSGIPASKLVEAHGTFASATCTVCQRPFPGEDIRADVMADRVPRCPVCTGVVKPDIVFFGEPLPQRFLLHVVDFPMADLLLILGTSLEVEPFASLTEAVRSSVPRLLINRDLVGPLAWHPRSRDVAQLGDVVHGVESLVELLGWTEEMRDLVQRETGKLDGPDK
In short: as §1

[10] = target: T5, Sirt1 (Homo sapiens, UniProt Q96EB6); experiment: in vitro activity of Sirt1; format: biochemical; settings: concentration of 100 μM
T5 sequence (Q96EB6 1-747): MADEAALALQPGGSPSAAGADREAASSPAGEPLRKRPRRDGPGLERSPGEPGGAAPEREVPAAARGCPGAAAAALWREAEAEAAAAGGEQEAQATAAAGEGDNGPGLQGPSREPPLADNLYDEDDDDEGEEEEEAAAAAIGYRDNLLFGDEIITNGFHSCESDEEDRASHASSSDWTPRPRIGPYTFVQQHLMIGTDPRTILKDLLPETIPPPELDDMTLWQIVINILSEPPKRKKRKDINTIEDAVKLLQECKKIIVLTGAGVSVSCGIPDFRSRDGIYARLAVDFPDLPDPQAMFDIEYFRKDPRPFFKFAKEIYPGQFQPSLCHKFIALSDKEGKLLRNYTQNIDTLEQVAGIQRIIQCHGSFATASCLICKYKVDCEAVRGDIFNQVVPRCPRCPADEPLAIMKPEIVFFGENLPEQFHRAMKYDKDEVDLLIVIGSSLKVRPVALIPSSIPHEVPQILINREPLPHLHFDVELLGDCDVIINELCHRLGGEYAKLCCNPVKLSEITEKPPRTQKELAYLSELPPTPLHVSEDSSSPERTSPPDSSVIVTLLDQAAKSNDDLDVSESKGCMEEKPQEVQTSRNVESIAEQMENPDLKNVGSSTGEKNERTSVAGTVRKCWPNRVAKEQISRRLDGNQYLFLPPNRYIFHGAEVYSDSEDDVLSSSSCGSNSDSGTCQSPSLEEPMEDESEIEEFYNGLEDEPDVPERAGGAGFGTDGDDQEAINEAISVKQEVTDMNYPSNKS

SMILES: CC(NC(=O)c1ccccc1/N=C/c1c(O)ccc2ccccc12)c1ccccc1 (centres unmarked) [sirtinol]
- weaker potency against Sirt1 than against Sirt2 [2]: ~ 3 fold

SMILES: O=C1CCc2c(ccc3ccccc23)O1 [splitomicin]
- inhibition of yeast Sir2 (potency range) [3]: micromolar inhibitors

SMILES: NC(=O)C1CCCc2c1[nH]c1ccc(Cl)cc21 (centres unmarked) [EX-527]
- potency against Sirt2 relative to Sirt1 [1]: about two orders of magnitude lower potency
- effect against Sirt5 [4]: no effect

SMILES: C[C@]12CC[C@@H]3c4ccc(O)cc4CC[C@H]3[C@@H]1CCC2OC(=O)CCc1ccccc1 (some centres unmarked) [CSC8, 3-hydroxyestra-1,3,5(10)-trien-17-yl 3-phenylpropanoate]
- Effect on the activity of Sirt6 [5]: --- (no such effect)
- Effect on the activity of Sirt2 ([6]; 100 μM compound, 0.1 mM FdL-2 peptide, 0.5 mM NAD+): inhibition (significant inhibitory effects (>25% loss of activity))
- inhibition at 100 µM ([6]; 100 μM compound, read-out: Sirt2 inhibition in the screen): ~80%
- IC50 ([6]; dose-response, substrate peptide concentration 100 μM, read-out: IC50 against Sirt2): 4.8 ± 0.5 µM
- cytotoxicity [7]: very high cytotoxicity
- Effect on the activity of Sirt5 [8]: --- (no such effect)
- Effect on the activity of Sirt3 [9]: --- (no such effect)
- effect on the in vitro activity of Sirt1 [10]: only a weak inhibitory effect
